Test results taken from patent US8431704B2, “Quinoline or isoquinoline substituted P2X7 antagonists” (Janssen Pharmaceutica NV, priority 2008, dated 2013).

Molecular target: T1, P2X7 (Homo sapiens, UniProt Q99572)
T1 construct: endogenous in cells; host or cells: THP-1 human monocytic cell line
T1 sequence (Q99572 1-595): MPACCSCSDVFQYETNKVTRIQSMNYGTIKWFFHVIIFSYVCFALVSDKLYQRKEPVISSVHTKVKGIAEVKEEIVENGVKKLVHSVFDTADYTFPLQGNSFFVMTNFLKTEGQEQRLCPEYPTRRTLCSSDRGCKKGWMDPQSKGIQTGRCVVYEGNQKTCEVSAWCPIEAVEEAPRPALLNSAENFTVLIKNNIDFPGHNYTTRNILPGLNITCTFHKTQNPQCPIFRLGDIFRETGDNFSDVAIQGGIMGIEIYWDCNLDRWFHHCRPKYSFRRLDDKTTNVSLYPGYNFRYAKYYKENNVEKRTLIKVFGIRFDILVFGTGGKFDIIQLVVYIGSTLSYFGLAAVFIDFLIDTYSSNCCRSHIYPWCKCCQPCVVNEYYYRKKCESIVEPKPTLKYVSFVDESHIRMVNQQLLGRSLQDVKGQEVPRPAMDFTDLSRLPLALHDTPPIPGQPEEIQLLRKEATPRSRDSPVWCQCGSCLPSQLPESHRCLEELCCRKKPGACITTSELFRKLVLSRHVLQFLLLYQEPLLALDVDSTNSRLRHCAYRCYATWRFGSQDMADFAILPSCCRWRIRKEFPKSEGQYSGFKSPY
Experiment: THP-1 YoPro uptake assay (BzATP-stimulated Yo-Pro-1 uptake)
Type: cell-based
Details: Table F-10, THP-1 cells, read-out: mean pIC50 values for P2X7 antagonism (converted)
Description: The human monocytic cell line THP-1 was grown as a suspension culture in RPMI medium supplemented with 10% fetal bovine serum, penicillin/streptomycin (50 units/mL), 2 mM L-glutamine, and 20 μM 2-mercaptoethanol. Cells were maintained at a density below 0.5 million per mL. On the day of the assay, cells were washed twice with assay buffer, and then resuspended at 2 million per mL in assay buffer containing 2 μM Yo-Pro-1 (Invitrogen). The assay buffer contained (in mM): 280 sucrose, 5 KCl, 10 glucose, 10 HEPES, 5 N-methyl-D-glucamine. The cells were added at 200 k/well into poly-D-lysine-coated black-walled 96-well plates (Biocoat, Becton-Dickinson). Test compounds were dissolved in DMSO, and then added at the test concentration to each well of the 96-well plate. Concentration dependence of block was determined by exposing each well of cells in duplicate rows of a 96-well plate to a serial dilution of test compound. The concentration series usually started at 10 μM with a three-fold decrement in concentration. The final DMSO concentration seen by the cells was less than 0.5%. Cells were incubated with test compounds for 30 minutes at 37° C. A background reading was taken using a Gemini SpectraMax with 490 nm excitation and 530 nm emission. […] After incubation for 60 minutes at 37° C., an endpoint read was taken in the SpectraMax plate reader. The amount of block of the response was determined by comparing the fluorescence intensity in each well to the average of control wells on each plate. The control wells contained either a known antagonist of P2X7 (positive controls) or a concentration of DMSO equal to that in the test wells. Data were analyzed using a nonlinear regression program (Origin, OriginLab, MA). Results are reported as the −log of the IC50 (pIC50).

Row | SMILES | IC50 [nM]
1 | O=C(NCC(c1cnc(C(F)(F)F)nc1)N1CCOCC1)c1c(Cl)ccc2nc(N3CC[C@@H](O)C3)ccc12 (some centres unmarked) [Compound 499] | 20.9
2 | O=C(NCC(c1cnc(C(F)(F)F)nc1)N1CCOCC1)c1c(Cl)ccc2nc(N3CCOCC3)ccc12 (centres unmarked) [Compound 502] | 13.8
3 | C[C@@H]1CN(c2ccc3c(C(=O)NCC(c4cnc(C(F)(F)F)nc4)N4CCOCC4)c(Cl)ccc3n2)C[C@H](C)O1 (some centres unmarked) [Compound 503] | 37.2
4 | O=C(NCC(c1cnc(C(F)(F)F)nc1)N1CCOCC1)c1c(Cl)ccc2nc(N3CCNCC3)ccc12 (centres unmarked) [Compound 504] | 6.92
5 | CN1CCN(c2ccc3c(C(=O)NCC(c4cnc(C(F)(F)F)nc4)N4CCOCC4)c(Cl)ccc3n2)CC1 (centres unmarked) [Compound 505] | 5.13
6 | O=C(NCC(c1cnc(C(F)(F)F)nc1)N1CCOCC1)c1c(Cl)ccc2nc(N3CC[C@H](O)C3)ccc12 (some centres unmarked) [Compound 506] | 18.2
7 | O=C(NCC(c1cnc(C(F)(F)F)nc1)N1CCOCC1)c1c(Cl)ccc2nc(N3CCC4(CCCN4)C3)ccc12 (centres unmarked) [Compound 519] | 7.08
8 | O=C(NCC(c1cnc(C(F)(F)F)nc1)N1CCOCC1)c1c(Cl)ccc2nc(N3CCC4(CCCCN4)C3)ccc12 (centres unmarked) [Compound 520] | 9.55
9 | NCC1CCN(c2ccc3c(C(=O)NCC(c4cnc(C(F)(F)F)nc4)N4CCOCC4)c(Cl)ccc3n2)CC1 (centres unmarked) [Compound 521] | 13.8
10 | O=C(NCC(c1cnc(C(F)(F)F)nc1)N1CCOCC1)c1c(Cl)ccc2nc(N3CC4(CNC4)C3)ccc12 (centres unmarked) [Compound 524] | 30.2
11 | O=C(NCC(c1cnc(C(F)(F)F)nc1)N1CCOCC1)c1c(Cl)ccc2nc(N3CC4COCC4C3)ccc12 (centres unmarked) [Compound 525] | 52.5
12 | O=C(NCC(c1cnc(C(F)(F)F)nc1)N1CCOCC1)c1c(Cl)ccc2nc(N3C[C@@H]4C[C@H]3CO4)ccc12 (some centres unmarked) [Compound 526] | 56.2
13 | O=C(NCC(c1cnc(C(F)(F)F)nc1)N1CCCCC1)c1c(Cl)ccc2nc(N3CCC(O)CC3)ccc12 (centres unmarked) [Compound 546] | 4.79
14 | O=C(NCC(c1cnc(C(F)(F)F)nc1)N1CCCCC1)c1c(Cl)ccc2nc(N3CCOCC3)ccc12 (centres unmarked) [Compound 548] | 1.91
15 | O=C(NCC(c1cnc(C(F)(F)F)nc1)N1CCCCC1)c1c(Cl)ccc2nc(N3CCNCC3)ccc12 (centres unmarked) [Compound 549] | 3.39
16 | CS(=O)(=O)N[C@H]1CCN(c2ccc3c(C(=O)NCC(c4cnc(C(F)(F)F)nc4)N4CCOCC4)c(Cl)ccc3n2)C1 (some centres unmarked) [Compound 551] | 14.8
17 | CS(=O)(=O)N[C@@H]1CCN(c2ccc3c(C(=O)NCC(c4cnc(C(F)(F)F)nc4)N4CCOCC4)c(Cl)ccc3n2)C1 (some centres unmarked) [Compound 552] | 17.8
18 | CC(=O)NC1CC2CCC(C1)N2c1ccc2c(C(=O)NCC(c3cnc(C(F)(F)F)nc3)N3CCOCC3)c(Cl)ccc2n1 (centres unmarked) [Compound 555] | 16.2
19 | CN[C@H]1CCN(c2ccc3c(C(=O)NCC(c4cnc(C(F)(F)F)nc4)N4CCOCC4)c(Cl)ccc3n2)C1 (some centres unmarked) [Compound 556] | 1.15
20 | O=C(NCC(c1cnc(C(F)(F)F)nc1)N1CCOCC1)c1c(Cl)ccc2nc(N3CC4CNCC4C3)ccc12 (centres unmarked) [Compound 558] | 2.51
21 | O=C(NCC(c1cnc(C(F)(F)F)nc1)N1CCOCC1)c1c(Cl)ccc2nc(N3CCC4CNCC43)ccc12 (centres unmarked) [Compound 559] | 3.63
22 | O=C(NCC(c1cnc(C(F)(F)F)nc1)N1CCOCC1)c1c(Cl)ccc2nc(N3CC4CCNC4C3)ccc12 (centres unmarked) [Compound 560] | 4.9
23 | N[C@@H]1CCN(c2ccc3c(C(=O)NCC(c4cnc(C(F)(F)F)nc4)N4CCOCC4)c(Cl)ccc3n2)C1 (some centres unmarked) [Compound 561] | 1.35
24 | CN[C@@H]1CCN(c2ccc3c(C(=O)NCC(c4cnc(C(F)(F)F)nc4)N4CCOCC4)c(Cl)ccc3n2)C1 (some centres unmarked) [Compound 562] | 4.9

The next lines start with the values.

Row | IC50 [nM] | SMILES
25 | 6.17 | O=C(NCC(c1cnc(C(F)(F)F)nc1)N1CCOCC1)c1c(Cl)ccc2nc(NCC3CC3)ccc12 (centres unmarked) [Compound 497]
26 | 9.12 | O=C(NCC(c1cnc(C(F)(F)F)nc1)N1CCOCC1)c1c(Cl)ccc2nc(NCCO)ccc12 (centres unmarked) [Compound 498]
27 | 10.2 | CNc1ccc2c(C(=O)NCC(c3cnc(C(F)(F)F)nc3)N3CCOCC3)c(Cl)ccc2n1 (centres unmarked) [Compound 500]
28 | 10.2 | O=C(NCC(c1cnc(C(F)(F)F)nc1)N1CCOCC1)c1c(Cl)ccc2nc(NC3CC3)ccc12 (centres unmarked) [Compound 501]
29 | 13.5 | O=C(NCC(c1cnc(C(F)(F)F)nc1)N1CCC(F)(F)CC1)c1c(Cl)ccc2nc(NCC3CC3)ccc12 (centres unmarked) [Compound 507]
30 | 25.7 | O=C(NCC(c1cnc(C(F)(F)F)nc1)N1CCC(F)(F)CC1)c1c(Cl)ccc2nc(NCC(O)CO)ccc12 (centres unmarked) [Compound 508]
31 | 17.8 | O=C(NCC(c1cnc(C(F)(F)F)nc1)N1CCC(F)(F)CC1)c1c(Cl)ccc2nc(N3CC(O)(C(F)(F)F)C3)ccc12 (centres unmarked) [Compound 509]
32 | 3.47 | O=C(NCC(c1cnc(C(F)(F)F)nc1)N1CCC(F)(F)CC1)c1c(Cl)ccc2nc(N3CC(CO)C3)ccc12 (centres unmarked) [Compound 510]
33 | 4.79 | CN(CCN)c1ccc2c(C(=O)NCC(c3cnc(C(F)(F)F)nc3)N3CCC(F)(F)CC3)c(Cl)ccc2n1 (centres unmarked) [Compound 511]
34 | 5.37 | NC1CN(c2ccc3c(C(=O)NCC(c4cnc(C(F)(F)F)nc4)N4CCOCC4)c(Cl)ccc3n2)C1 (centres unmarked) [Compound 512]
35 | 5.13 | O=C(NCC(c1cnc(C(F)(F)F)nc1)N1CCC(F)(F)CC1)c1c(Cl)ccc2nc(NCCN3CCOCC3)ccc12 (centres unmarked) [Compound 513]
36 | 7.59 | O=C(NCC(c1cnc(C(F)(F)F)nc1)N1CCOCC1)c1c(Cl)ccc2nc(NCCNCCO)ccc12 (centres unmarked) [Compound 514]
37 | 5.62 | O=C(NCC(c1cnc(C(F)(F)F)nc1)N1CCC(F)(F)CC1)c1c(Cl)ccc2nc(N3CCC(c4n[nH]c(=O)[nH]4)CC3)ccc12 (centres unmarked) [Compound 515]
38 | 9.77 | CC1(O)CCN(c2ccc3c(C(=O)NCC(c4cnc(C(F)(F)F)nc4)N4CCOCC4)c(Cl)ccc3n2)CC1 (centres unmarked) [Compound 516]
39 | 8.51 | CNCCN(C)c1ccc2c(C(=O)NCC(c3cnc(C(F)(F)F)nc3)N3CCC(F)(F)CC3)c(Cl)ccc2n1 (centres unmarked) [Compound 517]
40 | 10.2 | O=C(NCC(c1cnc(C(F)(F)F)nc1)N1CCC(F)(F)CC1)c1c(Cl)ccc2nc(N3CCC(n4cn[nH]c4=O)CC3)ccc12 (centres unmarked) [Compound 518]
41 | 24.5 | CNC1CN(c2ccc3c(C(=O)NCC(c4cnc(C(F)(F)F)nc4)N4CCOCC4)c(Cl)ccc3n2)C1 (centres unmarked) [Compound 522]
42 | 15.8 | CN(CCN)c1ccc2c(C(=O)NCC(c3cnc(C(F)(F)F)nc3)N3CCOCC3)c(Cl)ccc2n1 (centres unmarked) [Compound 523]
43 | 77.6 | O=C(NCC(c1cnc(C(F)(F)F)nc1)N1CCOCC1)c1c(Cl)ccc2nc(NCC3CCOCC3)ccc12 (centres unmarked) [Compound 527]
44 | 4.57 | NCC1CCN(c2ccc3c(C(=O)NCC(c4cnc(C(F)(F)F)nc4)N4CCC(F)(F)CC4)c(Cl)ccc3n2)CC1 (centres unmarked) [Compound 528]
45 | 5.62 | O=C(NCC(c1cnc(C(F)(F)F)nc1)N1CCC(F)(F)CC1)c1c(Cl)ccc2nc(N3CCC4(CCCCN4)C3)ccc12 (centres unmarked) [Compound 529]
46 | 2.63 | O=C(NCC(c1cnc(C(F)(F)F)nc1)N1CCC(F)(F)CC1)c1c(Cl)ccc2nc(N3C[C@@H]4C[C@H]3CO4)ccc12 (some centres unmarked) [Compound 530]
47 | 3.02 | O=C(NCC(c1cnc(C(F)(F)F)nc1)N1CCC(F)(F)CC1)c1c(Cl)ccc2nc(N3CCC4(CCCN4)C3)ccc12 (centres unmarked) [Compound 531]
48 | 1.45 | NCCNc1ccc2c(C(=O)NCC(c3cnc(C(F)(F)F)nc3)N3CCCCC3)c(Cl)ccc2n1 (centres unmarked) [Compound 545]
49 | 3.47 | O=C(NCC(c1cnc(C(F)(F)F)nc1)N1CCCCC1)c1c(Cl)ccc2nc(NCCO)ccc12 (centres unmarked) [Compound 547]
50 | 2.34 | O=C(NCC(c1cnc(C(F)(F)F)nc1)N1CCCCC1)c1c(Cl)ccc2nc(NCC(O)CO)ccc12 (centres unmarked) [Compound 550]
51 | 17.4 | CS(=O)(=O)NCCNc1ccc2c(C(=O)NCC(c3cnc(C(F)(F)F)nc3)N3CCOCC3)c(Cl)ccc2n1 (centres unmarked) [Compound 553]
52 | 12.6 | O=C(NCC(c1cnc(C(F)(F)F)nc1)N1CCOCC1)c1c(Cl)ccc2nc(NC3CCOCC3)ccc12 (centres unmarked) [Compound 554]
53 | 1.12 | NCCNc1ccc2c(C(=O)NCC(c3cnc(C(F)(F)F)nc3)N3CCOCC3)c(Cl)ccc2n1 (centres unmarked) [Compound 557]
